# System: panel of 55 breast cancer cell lines
# Test: Cell growth inhibition assay (Cell Titer Glo, 72 h, 9 doses; GI50, TGI, LC50)
# Type: cell-based, human
# Details: value is the negative log10 of mol/L
# [1] = BT474 cell line, censored GI50 values
# [2] = BT483 cell line, censored GI50 values
# [3] = HCC38 cell line, censored GI50 values
# [4] = HCC1187 cell line, censored GI50 values
# [5] = HCC1419 cell line, censored GI50 values
# [6] = HCC1428 cell line, censored GI50 values
# [7] = MDAMB175VII cell line, censored GI50 values
# [8] = MDAMB361 cell line, censored GI50 values
# [9] = MDAMB436 cell line, censored GI50 values
# [10] = SKBR3 cell line, censored GI50 values
# [11] = SUM52PE cell line, censored GI50 values
# [12] = SUM149PT cell line, censored GI50 values
# [13] = SUM159PT cell line, censored GI50 values
# [14] = UACC812 cell line, censored GI50 values
# [15] = ZR75B cell line, censored GI50 values
# [16] = BT20 cell line, censored GI50 values
# [17] = HCC2185 cell line, censored GI50 values
# [18] = SUM185PE cell line, censored GI50 values
# [19] = ZR751 cell line, censored GI50 values
smiles,measurement,setting,value
Oc1cc(-c2nc(-c3ccccc3)[nH]c2-c2ccncc2)ccc1Cl [L-779450],GI50,[1],4.73
same,GI50,[2],4.84
same,GI50,[3],4.77
same,GI50,[4],5.07
same,GI50,"HCC1395 cell line, censored GI50 values",4.54
same,GI50,[5],4.78
same,GI50,[6],4.80
same,GI50,"HCC1937 cell line, censored GI50 values",4.84
same,GI50,"MDAMB134VI cell line, censored GI50 values",4.60
same,GI50,[7],5.05
same,GI50,[8],5.04
same,GI50,[9],5.66
same,GI50,"MDAMB468 cell line, censored GI50 values",4.90
same,GI50,[10],4.66
same,GI50,[11],5.13
same,GI50,[12],5.13
same,GI50,[13],4.70
same,GI50,[14],4.97
same,GI50,[15],4.51
same,GI50,cell line AU565,4.48
same,GI50,cell line BT20,4.44
same,GI50,cell line BT474,4.73
same,GI50,cell line BT483,4.84
same,GI50,cell line CAMA1,4.44
same,GI50,cell line HCC38,4.77
same,GI50,cell line HCC70,4.50
same,GI50,cell line HCC1143,4.39
same,GI50,cell line HCC1187,5.07
same,GI50,cell line HCC1395,4.54
same,GI50,cell line HCC1419,4.78
same,GI50,cell line HCC1428,4.80
same,GI50,cell line HCC1500,4.48
same,GI50,cell line HCC1937,4.84
same,GI50,cell line HCC1954,4.48
same,GI50,cell line HCC2185,4.42
same,GI50,cell line HCC3153,4.48
same,GI50,cell line MCF7,4.48
same,GI50,cell line MDAMB134V,4.60
same,GI50,cell line MDAMB175V,5.05
same,GI50,cell line MDAMB231,4.49
same,GI50,cell line MDAMB361,5.04
same,GI50,cell line MDAMB436,5.66
same,GI50,cell line MDAMB453,4.48
same,GI50,cell line MDAMB468,4.90
same,GI50,cell line SKBR3,4.66
same,GI50,cell line SUM52PE,5.13
same,GI50,cell line SUM149PT,5.13
same,GI50,cell line SUM159PT,4.70
same,GI50,cell line SUM1315MO,4.62
same,GI50,cell line T47D,4.48
same,GI50,cell line UACC812,4.97
same,GI50,cell line ZR75B,4.51
same,GI50,cell line ZR751,4.53
O=C1NC(=O)/C(=C/c2ccc(-c3ccc(F)cc3O)o2)S1 [AS-252424],GI50,"AU565 cell line, censored GI50 values",4.87
same,GI50,[16],4.65
same,GI50,[1],5.36
same,GI50,[2],5.37
same,GI50,[4],5.78
same,GI50,[5],4.69
same,GI50,[6],5.31
same,GI50,"HCC1500 cell line, censored GI50 values",5.24
same,GI50,"HCC1806 cell line, censored GI50 values",5.15
same,GI50,"HCC1954 cell line, censored GI50 values",5.46
same,GI50,[17],4.46
same,GI50,"MCF7 cell line, censored GI50 values",4.80
same,GI50,[7],4.61
same,GI50,[8],4.71
same,GI50,[9],4.74
same,GI50,"MDAMB453 cell line, censored GI50 values",4.69
same,GI50,[10],4.40
same,GI50,[11],4.44
same,GI50,[12],4.66
same,GI50,[18],5.27
same,GI50,"SUM225CWN cell line, censored GI50 values",5.02
same,GI50,"SUM1315MO2 cell line, censored GI50 values",4.75
same,GI50,"T47D cell line, censored GI50 values",5.25
same,GI50,[14],4.88
same,GI50,[15],4.65
same,GI50,[19],5.20
same,GI50,cell line AU565,4.87
same,GI50,cell line BT20,4.65
same,GI50,cell line BT474,5.36
same,GI50,cell line BT483,5.37
same,GI50,cell line CAMA1,4.18
same,GI50,cell line HCC70,4.67
same,GI50,cell line HCC1187,5.78
same,GI50,cell line HCC1419,4.69
same,GI50,cell line HCC1428,5.31
same,GI50,cell line HCC1500,5.24
same,GI50,cell line HCC1806,5.15
same,GI50,cell line HCC1937,4.18
same,GI50,cell line HCC1954,5.46
same,GI50,cell line HCC2185,4.46
same,GI50,cell line HCC3153,4.48
same,GI50,cell line LY2,4.51
same,GI50,cell line MCF7,4.80
same,GI50,cell line MDAMB134V,4.30
same,GI50,cell line MDAMB175V,4.61
same,GI50,cell line MDAMB361,4.71
same,GI50,cell line MDAMB436,4.74
same,GI50,cell line MDAMB453,4.69
same,GI50,cell line MDAMB468,4.18
same,GI50,cell line SKBR3,4.40
same,GI50,cell line SUM52PE,4.44
same,GI50,cell line SUM149PT,4.66
same,GI50,cell line SUM185PE,5.27
same,GI50,cell line SUM225CWN,5.02
same,GI50,cell line SUM1315MO,4.75
same,GI50,cell line T47D,5.25
same,GI50,cell line UACC812,4.88
same,GI50,cell line ZR75B,4.65
same,GI50,cell line ZR751,5.20
O=S(=O)(CC1CS1)c1ccc(Oc2ccccc2)cc1 (centres unmarked) [SB-3CT],GI50,[16],4.42
same,GI50,[1],4.99
same,GI50,[2],4.59
same,GI50,[3],4.62
same,GI50,[4],4.83
same,GI50,[17],4.21
same,GI50,[8],4.00
same,GI50,"MDAMB415 cell line, censored GI50 values",4.00
same,GI50,[11],4.22
same,GI50,[12],4.53
same,GI50,[13],4.85
same,GI50,[18],4.76
same,GI50,[14],4.28
same,GI50,[15],4.62
same,GI50,[19],4.00
same,GI50,cell line AU565,4.00
same,GI50,cell line BT20,4.42
same,GI50,cell line BT474,4.99
same,GI50,cell line BT483,4.59
same,GI50,cell line CAMA1,4.00
same,GI50,cell line HCC38,4.62
same,GI50,cell line HCC70,3.88
same,GI50,cell line HCC1143,4.00
same,GI50,cell line HCC1187,4.83
same,GI50,cell line HCC1395,3.78
same,GI50,cell line HCC1419,3.78
same,GI50,cell line HCC1428,4.18
same,GI50,cell line HCC1500,3.78
same,GI50,cell line HCC1806,4.00
same,GI50,cell line HCC1937,4.00
same,GI50,cell line HCC1954,4.00
same,GI50,cell line HCC2185,4.21
same,GI50,cell line HCC3153,4.00
same,GI50,cell line MCF7,4.00
